Source: ChEMBL document CHEMBL1201862, “PubChem BioAssay data set” (2004)
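1) Cells in 96-well plates. 2) Compound, 48 h, 5 concentrations. 3) Linear interpolation between surrounding doses. 4) Unreached endpoint = highest concentration. GI50 = concentration required for 50% inhibition of growth.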 Activity calls are given as the source filed them. Rule as the data show it: active = GI50 up to about 1.1 µM and inactive = higher.

How the values were obtained:
Test in all cases: growth of human tumour cells (NCI), 48 h
786-0 = test system: 786-0
NCI/ADR-RES = test system: NCI/ADR-RES
NCI-H522 = test system: NCI-H522
NCI-H226 = test system: NCI-H226
IGROV-1 = test system: IGROV-1
MCF7 = test system: MCF7
KM12 = test system: KM12
RPMI-8226 = test system: RPMI-8226
OVCAR-4 = test system: OVCAR-4
SK-MEL-28 = test system: SK-MEL-28
A498 = test system: A498
U-251 = test system: U-251
UO-31 = test system: UO-31
M14 = test system: M14
SN12C = test system: SN12C
NCI-H23 = test system: NCI-H23
COLO 205 = test system: COLO 205
SNB-19 = test system: SNB-19
SR = test system: SR

Measured: GI50

CC(=O)N[C@@H](Cc1ccc(O)cn1)C(=O)NCc1ccc(Cl)cc1
inactive: 786-0 > 100 µM | NCI/ADR-RES > 100 µM | NCI-H522 > 100 µM | NCI-H226 > 100 µM | IGROV-1 > 100 µM | MCF7 > 100 µM | KM12 > 100 µM | RPMI-8226 > 100 µM | OVCAR-4 > 100 µM | SK-MEL-28 > 100 µM | A498 > 100 µM | U-251 > 100 µM | UO-31 > 100 µM | M14 > 100 µM | SN12C > 100 µM | NCI-H23 > 100 µM | COLO 205 > 100 µM | SNB-19 > 100 µM

CC(=O)c1ccc(N2CCN(C3=C(Cl)C(=O)c4c(O)ccc(O)c4C3=O)CC2)cc1
inactive: 786-0 14.2 µM | NCI/ADR-RES 9.1 µM | IGROV-1 4 µM | MCF7 1.49 µM | KM12 10 µM | RPMI-8226 2.86 µM | OVCAR-4 3.14 µM | SK-MEL-28 5.21 µM | A498 17.6 µM | SR 2 µM | U-251 3.4 µM | UO-31 10.9 µM | M14 2.21 µM | NCI-H23 2.92 µM | COLO 205 2.67 µM | SNB-19 20.7 µM

O=C1c2ccccc2C(=O)c2sc(Nc3ccc(Cl)cc3)nc21
inactive: 786-0 1.6 µM | NCI-H522 1.61 µM | NCI-H226 7.53 µM | IGROV-1 2.44 µM | KM12 2.04 µM | RPMI-8226 1.38 µM | OVCAR-4 1.65 µM | SK-MEL-28 1.66 µM | A498 16.1 µM | SR 1.86 µM | U-251 1.62 µM | UO-31 3.35 µM | M14 2.14 µM | SN12C 1.85 µM | NCI-H23 1.55 µM | COLO 205 7.16 µM | SNB-19 5.73 µM

CC1C(=O)OC2CC[N+]3(CC(=O)c4ccc(Br)cc4)CC=C(COC(=O)C(C)(O)C1(C)O)C23 (stereo not given)
inactive: NCI/ADR-RES > 375 µM | NCI-H522 > 375 µM | NCI-H226 > 375 µM | IGROV-1 > 375 µM | MCF7 > 375 µM | KM12 > 375 µM | RPMI-8226 > 375 µM | OVCAR-4 > 375 µM | SK-MEL-28 > 375 µM | A498 > 375 µM | U-251 > 375 µM | UO-31 > 375 µM | SN12C > 375 µM | NCI-H23 > 375 µM | COLO 205 > 375 µM | SNB-19 > 375 µM

COC(=O)C(Cc1nc2ccc(Cl)cc2nc1O)C(=O)C(=O)Nc1ccccc1[N+](=O)[O-] (stereo not given)
inactive: 786-0 > 100 µM | NCI-H522 > 100 µM | NCI-H226 > 100 µM | IGROV-1 > 100 µM | KM12 > 100 µM | RPMI-8226 > 100 µM | OVCAR-4 > 100 µM | SK-MEL-28 > 100 µM | A498 > 100 µM | SR > 100 µM | U-251 > 100 µM | UO-31 > 100 µM | M14 > 100 µM | SN12C > 100 µM | NCI-H23 > 100 µM | COLO 205 > 100 µM | SNB-19 > 100 µM

COC1C=COC2(C)Oc3c(C)c(O)c4c(O)c(c(/C=N/N5CCN(N)CC5)c(O)c4c3C2=O)NC(=O)C(C)=CC=CC(C)C(O)C(C)C(O)C(C)C(OC(C)=O)C1C (stereo not given)
inactive: 786-0 > 100 µM | NCI-H522 34 µM | NCI-H226 > 100 µM | IGROV-1 > 100 µM | KM12 68.4 µM | RPMI-8226 29.7 µM | OVCAR-4 70.5 µM | SK-MEL-28 34.4 µM | A498 > 100 µM | SR 34.1 µM | U-251 > 100 µM | UO-31 41.7 µM | M14 > 100 µM | SN12C > 100 µM | NCI-H23 31.9 µM | COLO 205 37.8 µM | SNB-19 > 100 µM

Cc1ccccc1NC(=O)C(=O)CC(=O)c1sc(-n2nc(-c3ccccc3)cc2-c2ccccc2)nc1C
inactive: 786-0 > 100 µM | NCI-H522 > 100 µM | NCI-H226 > 100 µM | IGROV-1 > 100 µM | KM12 > 100 µM | RPMI-8226 > 100 µM | OVCAR-4 > 100 µM | A498 > 100 µM | SR > 100 µM | U-251 > 100 µM | UO-31 > 100 µM | M14 > 100 µM | SN12C > 100 µM | NCI-H23 > 100 µM | COLO 205 > 100 µM | SNB-19 > 100 µM

CCCc1c(OC)c(=O)c2c(O)cc(OC)c3c4c(OC)cc(O)c5c(=O)c(OC)c(CCC)c(c1c23)c54
active: SR 0.31 µM | U-251 0.615 µM
inactive: 786-0 2.84 µM | NCI/ADR-RES 5.26 µM | NCI-H522 1.53 µM | NCI-H226 3.46 µM | IGROV-1 2.98 µM | MCF7 3.43 µM | KM12 8.57 µM | RPMI-8226 2.5 µM | OVCAR-4 3.72 µM | SK-MEL-28 5.68 µM | A498 10.6 µM | UO-31 2.62 µM | M14 2.05 µM | SN12C 3.15 µM | NCI-H23 7.94 µM | COLO 205 4.35 µM | SNB-19 4.32 µM

OCC(O)COc1c(Cl)cc(Cl)cc1Cl (stereo not given)
inactive: 786-0 > 47.6 µM | NCI-H522 > 100 µM | NCI-H226 > 100 µM | IGROV-1 > 100 µM | KM12 > 100 µM | RPMI-8226 > 44.9 µM | OVCAR-4 > 100 µM | SK-MEL-28 > 100 µM | A498 > 100 µM | SR 61.7 µM | U-251 > 100 µM | UO-31 > 100 µM | M14 > 100 µM | SN12C > 100 µM | NCI-H23 > 57.4 µM | COLO 205 > 68.7 µM | SNB-19 > 100 µM

O=C(N/C(=C\c1cccc([N+](=O)[O-])c1)c1nc2c(O)nc(S)nc2[nH]1)c1ccccc1
inactive: 786-0 > 100 µM | NCI-H522 66.8 µM | NCI-H226 > 100 µM | IGROV-1 > 100 µM | KM12 > 100 µM | RPMI-8226 97.1 µM | OVCAR-4 > 100 µM | SK-MEL-28 > 100 µM | A498 > 100 µM | SR > 100 µM | U-251 > 100 µM | UO-31 24.5 µM | M14 > 100 µM | SN12C > 100 µM | NCI-H23 > 100 µM | COLO 205 > 100 µM | SNB-19 > 100 µM

COc1ccc(/C=C2\CCC(CCN(C)C)(C3=CCCC3)C2=O)cc1 (stereo not given)
inactive: 786-0 15.3 µM | NCI-H522 16.1 µM | NCI-H226 20.6 µM | IGROV-1 16.7 µM | KM12 18 µM | RPMI-8226 20.8 µM | OVCAR-4 19.7 µM | SK-MEL-28 19 µM | A498 17.7 µM | SR 27.2 µM | U-251 16.5 µM | UO-31 14.8 µM | M14 15.1 µM | SN12C 19.9 µM | NCI-H23 29 µM | COLO 205 12.8 µM | SNB-19 16.6 µM

COC1[C@@H](OC(C)=O)[C@@H](NC(=O)C(Cl)(Cl)Cl)C(I)[C@@H](N2C(=O)c3ccccc3C2=O)[C@H]1OC (stereo not given in full)
inactive: 786-0 > 100 µM | NCI-H522 > 100 µM | NCI-H226 > 100 µM | IGROV-1 > 100 µM | KM12 6.59 µM | RPMI-8226 > 100 µM | OVCAR-4 72.3 µM | SK-MEL-28 > 100 µM | A498 48.6 µM | SR > 100 µM | U-251 > 100 µM | M14 > 100 µM | SN12C > 100 µM | NCI-H23 > 100 µM | COLO 205 > 100 µM | SNB-19 > 100 µM

CO[C@H](c1ccccc1)[C@H](O)[C@](O)(c1ccccc1)P(=O)(OC)OC
inactive: 786-0 > 100 µM | NCI/ADR-RES > 100 µM | NCI-H522 > 100 µM | NCI-H226 > 100 µM | IGROV-1 > 100 µM | KM12 > 100 µM | RPMI-8226 > 100 µM | OVCAR-4 > 100 µM | SK-MEL-28 > 100 µM | A498 > 100 µM | SR > 100 µM | U-251 > 100 µM | UO-31 > 100 µM | M14 > 100 µM | SN12C > 100 µM | NCI-H23 > 100 µM | COLO 205 > 100 µM | SNB-19 > 100 µM

CCC(O)(c1ccc(OC)cc1)C(c1ccc(OCc2ccccc2)cc1)c1ccc(OCc2ccccc2)cc1 (stereo not given)
inactive: 786-0 > 100 µM | NCI-H522 > 100 µM | NCI-H226 > 100 µM | IGROV-1 > 100 µM | KM12 > 100 µM | RPMI-8226 > 100 µM | OVCAR-4 > 100 µM | SK-MEL-28 > 100 µM | A498 > 100 µM | SR > 100 µM | U-251 > 100 µM | UO-31 > 100 µM | M14 > 100 µM | SN12C 99.5 µM | NCI-H23 > 100 µM | COLO 205 > 100 µM | SNB-19 > 100 µM

CC1=Nc2c(ccc3c2C(=O)c2ccccc2C3=O)NC(c2ccncc2)C1 (stereo not given)
inactive: 786-0 > 10 µM | NCI-H522 6.82 µM | NCI-H226 > 10 µM | IGROV-1 4.94 µM | KM12 5.07 µM | RPMI-8226 4.84 µM | OVCAR-4 > 10 µM | SK-MEL-28 > 10 µM | A498 23.8 µM | U-251 > 10 µM | UO-31 4.72 µM | M14 > 10 µM | SN12C 57.4 µM | NCI-H23 > 10 µM | COLO 205 > 10 µM | SNB-19 > 10 µM
active: SR 0.135 µM
